#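 These data come from cells grown in 96-well plates and exposed to compound for 48 hours at five concentrations. At the GI50, growth is halved.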 Active and inactive are the calls of the source. Rule as the data show it: active = GI50 up to about 1.1 µM and inactive = higher.
# What was measured:
# Assay in all cases: inhibition of tumour cell growth, NCI panel, 48 h
# [1] = test system: UACC-62
# [2] = test system: NCI-H23
# [3] = test system: DMS-273
# [4] = test system: SW-620
# [5] = test system: LOX IMVI
# [6] = test system: OVCAR-3
# [7] = test system: HCT-15
# [8] = test system: RXF 631
# [9] = test system: SK-MEL-5
# [10] = test system: XF498
# [11] = test system: CAKI-1
# [12] = test system: SNB-75
# [13] = test system: RPMI-8226
# [14] = test system: HL-60
# [15] = test system: EKVX
# [16] = test system: Malme-3M
# [17] = test system: HCT-116
# [18] = test system: SK-MEL-2
# [19] = test system: SF-295
# [20] = test system: 786-0
# [21] = test system: NCI-H522
# [22] = test system: KM-20L2
# [23] = test system: LXFL 529
# [24] = test system: M14
# [25] = test system: DMS-114
# [26] = test system: NCI-H460
# [27] = test system: RXF 393
# [28] = test system: HT-29
# [29] = test system: UO-31
# [30] = test system: OVCAR-4
# [31] = test system: SR
# [32] = test system: DLD-1
# [33] = test system: SF-268
# [34] = test system: K562
# [35] = test system: UACC-257
# [36] = test system: MOLT-4
# [37] = test system: U-251
# [38] = test system: SF-539
# [39] = test system: SK-OV-3
# [40] = test system: A498
# [41] = test system: IGROV-1
# [42] = test system: HOP-62
# [43] = test system: A549
# [44] = test system: CCRF-CEM
# [45] = test system: KM12
# [46] = test system: SNB-19
# [47] = test system: ACHN
# [48] = test system: HCC 2998
# [49] = test system: M19-MEL
# [50] = test system: COLO 205
# [51] = test system: OVCAR-8
# [52] = test system: SK-MEL-28
# [53] = test system: TK-10
# [54] = test system: NCI-H226
# [55] = test system: HOP-92
# [56] = test system: SN12C
# [57] = test system: SNB-78
smiles,measurement,setting,value
COc1ccc(S(=O)(=O)N/N=C/CN2C(=O)c3ccccc3C2=O)cc1OC,GI50,[1],> 100 µM (inactive)
same,GI50,[2],> 100 µM (inactive)
same,GI50,[3],> 100 µM (inactive)
same,GI50,[4],> 100 µM (inactive)
same,GI50,[5],> 100 µM (inactive)
same,GI50,[6],> 100 µM (inactive)
same,GI50,[7],> 100 µM
same,GI50,[8],> 100 µM (inactive)
same,GI50,[9],> 100 µM (inactive)
same,GI50,[10],> 100 µM (inactive)
same,GI50,[11],> 100 µM (inactive)
same,GI50,[12],65.2 µM (inactive)
same,GI50,[13],> 100 µM (inactive)
same,GI50,[14],> 100 µM (inactive)
same,GI50,[15],> 100 µM (inactive)
same,GI50,[16],> 100 µM (inactive)
same,GI50,[17],> 100 µM (inactive)
same,GI50,[18],> 100 µM (inactive)
same,GI50,[19],> 100 µM (inactive)
same,GI50,[20],> 100 µM (inactive)
same,GI50,[21],> 100 µM (inactive)
same,GI50,[22],> 100 µM (inactive)
same,GI50,[23],> 100 µM (inactive)
same,GI50,[24],> 100 µM (inactive)
same,GI50,[25],> 100 µM (inactive)
same,GI50,[26],> 100 µM (inactive)
same,GI50,[27],> 100 µM (inactive)
same,GI50,[28],> 100 µM (inactive)
same,GI50,[29],> 100 µM (inactive)
same,GI50,[30],> 100 µM (inactive)
same,GI50,[31],> 100 µM (inactive)
same,GI50,[32],> 100 µM (inactive)
same,GI50,[33],> 100 µM (inactive)
same,GI50,[34],> 100 µM (inactive)
same,GI50,[35],> 100 µM (inactive)
same,GI50,[36],> 100 µM (inactive)
same,GI50,[37],> 100 µM (inactive)
same,GI50,[38],> 100 µM (inactive)
same,GI50,[39],> 100 µM (inactive)
same,GI50,[40],> 100 µM (inactive)
same,GI50,[41],> 100 µM (inactive)
same,GI50,[42],> 100 µM (inactive)
same,GI50,[43],> 100 µM (inactive)
same,GI50,[44],> 100 µM (inactive)
same,GI50,[45],> 100 µM (inactive)
same,GI50,[46],> 100 µM (inactive)
same,GI50,[47],> 100 µM (inactive)
same,GI50,[48],> 100 µM (inactive)
same,GI50,[49],> 100 µM (inactive)
same,GI50,[50],> 100 µM (inactive)
same,GI50,[51],> 100 µM (inactive)
C/C(=N\NC(=O)C(N)=O)c1c(O)cc(C)oc1=O,GI50,[52],> 100 µM (inactive)
same,GI50,[1],> 100 µM (inactive)
same,GI50,[2],> 100 µM (inactive)
same,GI50,[4],> 100 µM (inactive)
same,GI50,[5],> 100 µM (inactive)
same,GI50,[7],> 100 µM
same,GI50,[8],> 100 µM (inactive)
same,GI50,[9],> 100 µM (inactive)
same,GI50,[53],> 100 µM (inactive)
same,GI50,[54],> 100 µM (inactive)
same,GI50,[12],> 100 µM (inactive)
same,GI50,[14],> 100 µM (inactive)
same,GI50,[15],> 100 µM (inactive)
same,GI50,[16],> 100 µM (inactive)
same,GI50,[17],> 100 µM (inactive)
same,GI50,[18],> 100 µM (inactive)
same,GI50,[19],> 100 µM (inactive)
same,GI50,[20],> 100 µM (inactive)
same,GI50,[55],> 100 µM (inactive)
same,GI50,[22],> 100 µM (inactive)
same,GI50,[23],> 100 µM (inactive)
same,GI50,[24],> 100 µM (inactive)
same,GI50,[26],> 100 µM (inactive)
same,GI50,[28],> 100 µM (inactive)
same,GI50,[29],> 100 µM (inactive)
same,GI50,[30],> 100 µM (inactive)
same,GI50,[31],> 100 µM (inactive)
same,GI50,[32],> 100 µM (inactive)
same,GI50,[33],> 100 µM (inactive)
same,GI50,[34],> 100 µM (inactive)
same,GI50,[35],> 100 µM (inactive)
same,GI50,[36],> 100 µM (inactive)
same,GI50,[37],> 100 µM (inactive)
same,GI50,[56],> 100 µM (inactive)
same,GI50,[38],> 100 µM (inactive)
same,GI50,[39],> 100 µM (inactive)
same,GI50,[40],> 100 µM (inactive)
same,GI50,[41],> 100 µM (inactive)
same,GI50,[57],> 100 µM (inactive)
same,GI50,[42],> 100 µM (inactive)
same,GI50,[43],> 100 µM (inactive)
same,GI50,[44],> 100 µM (inactive)
same,GI50,[45],> 100 µM (inactive)
same,GI50,[46],> 100 µM (inactive)
same,GI50,[47],> 100 µM (inactive)
same,GI50,[48],> 100 µM (inactive)
same,GI50,[49],> 100 µM (inactive)
same,GI50,[51],> 100 µM (inactive)

# — ChEMBL document CHEMBL1201862, “PubChem BioAssay data set” (2004)
